Peptide text beside a SMILES is read from it.
Experiments:
[1] = tested on: mouse red blood cells; assay: Hemolysis assay; format: cell-based; details: 512 µg/mL (1MIC); mouse red blood cells in PBS 0.01 M pH 7.4, 37 °C, 1 h; absorbance 595 nm; 1% Triton X-100 = 100%; mean ± SD, n = 3
Method: The hemolytic activity of the peptide was evaluated according to Tang et al. with minor modifications. To prepare the red blood cell solution, 1.0 mL of fresh mouse red blood cells was centrifuged for 5 min at 1000× g, and the precipitates were resuspended in 10 mL of PBS (0.01 M, pH 7.4). A total of 50 µL of serial dilutions of peptides (2048, 1024, 512, 256, 128, 64, 32, 16, 8, and 4 µg/mL) were prepared in a 96-well plate by dissolving NP-6 and Nisin A in PBS (0.01 M, pH 7.4). Then, 50 µL of freshly prepared mouse red blood cell solution was added and incubated at 37 °C for 1 h. A total of 50 µL of PBS buffer only and 50 µL of Triton X-100 1% (w/v) were mixed with 50 µL of mouse red blood cell solution as negative and positive controls, respectively. After 1 h of incubation, all the samples were centrifuged at 1000× g for 5 min. The supernatant was collected, and the absorbance was at 595 nm with a UV–vis instrument at 25 °C. The percent hemolysis was calculated as the following equation:(1) %hemolysis=absorbancesample−absorbancenegative/absorbancepositive−absorbancenegative×100
Mouse red blood cells that were suspended in PBS and 1% Triton X-100 represented zero hemolysis and 100% hemolysis, respectively.

[2] = Serum stability (antimicrobial activity after incubation in fetal bovine serum, plate count); format: in vitro ADME; details: peptide 1.0 mg/mL in 50% fetal bovine serum, 37 °C, 0, 3 and 6 h; remaining antimicrobial activity by plate count (CFU); repeated three times
Method: The serum stability assay was conducted to evaluate the effect of serum on the antimicrobial activity of NP-6 using a method that was reported in a previous study. Peptide (1.0 mg/mL) was added to 50% fetal bovine serum and incubated at 37 °C for 0, 3, and 6 h, respectively. The cells that were incubated with PBS, NP-6, and serum were conducted as a blank and a control. The antimicrobial activity of NP-6 was measured using the plate count method. These assays were repeated three times independently. The inhibition rate of samples was calculated according to the following formula:(3) Inhibition rate (%)=Nblank−Nsample/Nblank×100 where Nblank is the colony forming units (CFU) of cells that were incubated with PBS and Nsample is the CFU of cells that were incubated with NP-6, NP-6+ serum, and serum, respectively. The inhibition rate of NP-6+ serum is expressed as the relative value to NP-6.

[3] = tested on: RAW 264.7 cells; assay: CCK-8 cytotoxicity assay; format: cell-based; details: CCK-8, 48 h incubation, absorbance 450 nm, mean, n = 3
Method: RAW 264.7 cells were purchased from the National Collection of Authenticated Cell Cultures (Shanghai, China). The cells were cultured in DMEM containing 10% FBS at 37 °C in a 5% CO2 incubator at constant temperature.
The Cell Counting Kit-8 (CCK-8) assay was conducted to measure the cytotoxicity of the peptides towards RAW 264.7 cells according to Deng et al.. The cells were incubated in Roswell Park Memorial Institute (RPMI)-1640 medium at 37 °C in a humidified atmosphere with 5% CO2. Then, they were added to a 96-well plate (3 × 10^3 cells/well) to adhere for 18 h. A total of 100 µL of the samples with different concentrations (256, 512, 1024, and 2048 µg/mL) diluted by H2O were added and incubated for another 48 h, after which the medium was disposed. A total of 100 µL of the CCK-8 test solution was added and incubated for 2 h at 37 °C. The absorbance values of the mixture at 450 nm were determined. The survival rate of cells was calculated according to the following formula:(2) Survival rate (%)=absorbancesample−absorbanceblank/absorbancecontrol−absorbanceblank×100

Structure (SMILES): CC[C@H](C)[C@H](NC(=O)CNC(=O)[C@@H](NC(=O)[C@H](CCCCN)NC(=O)[C@@H](NC(=O)[C@H](CCCCN)NC(=O)[C@H](CCCCN)NC(=O)[C@H](CC(=O)O)NC(=O)CNC(=O)[C@H](C)N)[C@@H](C)CC)[C@@H](C)CC)C(=O)N[C@@H](CC(N)=O)C(=O)NCC(=O)N[C@@H](Cc1ccccc1)C(=O)NCC(=O)N[C@@H](CCCNC(=N)N)C(=O)N[C@H](C(=O)NCC(=O)N[C@@H](CCCNC(=N)N)C(=O)N[C@@H](CC(C)C)C(=O)O)[C@@H](C)CC [NP-6] (H-AGDKKIKIGINGFGRIGRL-OH)
- hemolysis activity [1]: 2.39 ± 0.13%
- inhibition rate of NP-6 + serum samples relative to NP-6 [2]: exceeded 80%
- survival rate of RAW264.7 cells ([3]; 1 × MIC (512 µg/mL)): 72.56%
- survival rate of RAW264.7 cells ([3]; 2 × MIC (1024 µg/mL)): 20.26%

Reference: paper PMC9319634, “Antibacterial Peptide NP-6 Affects Staphylococcus aureus by Multiple Modes of Action” (International Journal of Molecular Sciences, 2022)
